Consider 21 compounds from ChEMBL document CHEMBL1671792, “Conformationally constrained farnesoid X receptor (FXR) agonists: heteroaryl replacements of the naphthalene” (Bioorg Med Chem Lett, 2011).

The target of series [1] is T1, Bile acid receptor (Homo sapiens, UniProt Q96RI1).
T1 sequence (Q96RI1 whole entry): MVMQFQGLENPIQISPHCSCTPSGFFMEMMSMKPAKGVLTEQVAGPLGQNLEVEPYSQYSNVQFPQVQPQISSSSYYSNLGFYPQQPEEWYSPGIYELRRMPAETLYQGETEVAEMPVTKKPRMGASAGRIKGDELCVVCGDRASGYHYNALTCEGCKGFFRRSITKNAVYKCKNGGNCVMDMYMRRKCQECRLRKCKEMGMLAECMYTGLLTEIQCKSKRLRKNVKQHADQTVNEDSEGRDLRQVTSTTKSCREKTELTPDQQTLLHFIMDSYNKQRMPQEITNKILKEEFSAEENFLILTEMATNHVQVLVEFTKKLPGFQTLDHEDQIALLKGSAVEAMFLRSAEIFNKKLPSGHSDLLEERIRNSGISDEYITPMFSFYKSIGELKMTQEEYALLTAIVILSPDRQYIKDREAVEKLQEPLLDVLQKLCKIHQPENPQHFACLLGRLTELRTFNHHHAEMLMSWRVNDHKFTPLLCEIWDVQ
Briefly: Agonist activity at human FXR LBD assessed as SRC1 peptide recruitment by FRET assay. The format is functional.

The target of series [2] is T2, Bile acid receptor (Homo sapiens) (UniProt Q96RI1).
T2 sequence (whole entry): T1 sequence (Q96RI1 whole entry)
Description: Agonist activity at human FXR LBD iexpressed in monkey CV-1 cells assessed as transactivation of luciferase reporter gene expression relative to GW 4064. The format is functional, cell-based. Set-up: concentration or dose not given beside the values.

The target of series [3] is T2, Bile acid receptor (Homo sapiens). Description: Agonist activity at human FXR LBD assessed as SRC1 peptide recruitment by FRET assay relative to GW 4064. The format is functional.
Series [4] concerns the target T1, Bile acid receptor. Description: Agonist activity at human FXR LBD iexpressed in monkey CV-1 cells assessed as transactivation of luciferase reporter gene expression. The format is functional, cell-based.
Series [5] addresses T2, Bile acid receptor (Homo sapiens). Description: Binding affinity to human FXR by X-ray crystallography.
Series [6] in a line: Oral bioavailability in mouse. It is filed as ADME, organism-based. The note with it: in vivo.
Series [7] is described as follows: Clearance in iv dosed cynomolgus monkey. The format is ADME, organism-based, Macaca fascicularis. The note with it: in vivo.
A short description of series [8]: Oral bioavailability in cynomolgus monkey. The format is ADME, organism-based, Macaca fascicularis. The note with it: in vivo.
Series [9] can be described thus: Half life in iv dosed cynomolgus monkey. It is filed as ADME, organism-based, Macaca fascicularis. The settings on record: in vivo.
Series [10] is described as follows: Volume of distribution at steady state in iv dosed rat. It is filed as ADME, organism-based. The settings on record: in vivo, read-out: Vdss.
Series [11] can be described thus: Half life in iv dosed mouse. The settings on record: in vivo. It is filed as ADME, organism-based.
The nature of series [12]: Oral bioavailability in Beagle dog. It is filed as ADME, organism-based, Canis lupus familiaris. The note with it: in vivo.
Series [13] can be described thus: Volume of distribution at steady state in iv dosed mouse. It is filed as ADME, organism-based. The note with it: in vivo, read-out: Vdss.
Series [14] can be described thus: Half life in iv dosed rat. It is filed as ADME, organism-based. The settings on record: in vivo.
Series [15] can be described thus: Oral bioavailability in rat. The settings on record: in vivo. The format is ADME, organism-based.
Series [16] in a line: Half life in iv dosed Beagle dog. The settings on record: in vivo. It is filed as ADME, organism-based, Canis lupus familiaris.
Series [17] can be described thus: Clearance in iv dosed rat. The format is ADME, organism-based. The note with it: in vivo.
Series [18] is described as follows: Volume of distribution at steady state in iv dosed cynomolgus monkey. The note with it: in vivo, read-out: Vdss. It is filed as ADME, organism-based, Macaca fascicularis.
Series [19] concerns Cynomolgus monkey. Description: Dose normalized AUC in orally dosed cynomolgus monkey. The format is ADME, organism-based, Macaca fascicularis. The settings on record: in vivo, po.
Series [20] is described as follows: Clearance in iv dosed mouse. It is filed as ADME, organism-based. The settings on record: in vivo.
Series [21] in a line: Volume of distribution at steady state in iv dosed Beagle dog. It is filed as ADME, organism-based, Canis lupus familiaris. The note with it: in vivo, read-out: Vdss.
Series [22] can be described thus: Clearance in iv dosed Beagle dog. The settings on record: in vivo. It is filed as ADME, organism-based, Canis lupus familiaris.
In series [23] the test system is Canis familiaris. Briefly: Dose normalized AUC in orally dosed Beagle dog. It is filed as ADME, organism-based, Canis lupus familiaris. The note with it: in vivo, po.
The subject of series [24] is Rattus norvegicus. Briefly: Dose normalized AUC in orally dosed rat. The format is ADME, organism-based. The settings on record: in vivo, po.
The subject of series [25] is Mus musculus. Briefly: Dose normalized AUC in orally dosed mouse. It is filed as ADME, organism-based. The settings on record: in vivo, po.
For series [26], the species on record is Homo sapiens. Description: Selectivity ratio of EC50 for human FXR to EC50 for human PPARgamma.
The species named for series [27] is Homo sapiens. Briefly: Selectivity ratio of EC50 for human FXR to EC50 for human PPARdelta.
The species entered for series [28] is Homo sapiens. Briefly: Selectivity ratio of EC50 for human FXR to EC50 for human LXRalpha.
For series [29], the species on record is Homo sapiens. Description: Selectivity ratio of EC50 for human FXR to EC50 for human RXRalpha.
Series [30] in a line: Solubility of compound in fasted state-simulated intestinal fluid at pH 6.5. The format is physicochemical. The note with it: simulated gi fluid.
For series [31], the species on record is Homo sapiens. Description: Selectivity ratio of EC50 for human FXR to EC50 for human LXRbeta.
Series [32] is filed under the species Homo sapiens. Briefly: Selectivity ratio of EC50 for human FXR to EC50 for human RORalpha.
For series [33], the species on record is Homo sapiens. Briefly: Selectivity ratio of EC50 for human FXR to EC50 for human LRH.
The species entered for series [34] is Homo sapiens. Description: Selectivity ratio of EC50 for human FXR to EC50 for human PXR.
Series [35] is filed under the species Homo sapiens. Description: Selectivity ratio of EC50 for human FXR to EC50 for human PPARalpha.

Values after ≈ are worked out from the molar mass of the structure shown. Active and inactive are the calls of the source. The rule behind the calls is not given here.

With `CC(C)Oc1cc(C(=O)O)nc2ccc(-c3ccc(OCc4c(-c5c(Cl)cccc5Cl)noc4C(C)C)cc3)cc12`, the 50% effective concentration (EC50) in series [1] is 40 nM; in series [4], 14 nM. Further, the results for the Activity in series [2] and in series [3] were 103% and 113%, respectively.
Take `CC(C)c1onc(-c2c(Cl)cccc2Cl)c1COc1ccc(-c2ccc3nc(C(=O)O)cnc3c2)cc1`: the concentration for a half-maximal effect (EC50) in series [1] stood at 150 nM; in [4] it was 690 nM. Also, the Activity in [2] worked out at 109%; in series [3], 96%.
`CC(C)c1onc(-c2c(Cl)cccc2Cl)c1COc1ccc(-c2ccc3nc(C(=O)O)cc(O)c3c2)cc1`: the EC50 in [1] was 51 nM; in series [4] it was over 10000 nM. For the same compound, the Activity in [3] came out at 91%.
Regarding `CC(C)c1onc(-c2c(Cl)cccc2Cl)c1COc1ccc(-c2ccc3cc(C(=O)O)cnc3c2)cc1`, the EC50 amounted to 200 nM in series [1] and 260 nM in series [4]. The Activity in series [2] amounted to 88%; in series [3], 87%.
With `CC(C)c1onc(-c2c(Cl)cccc2Cl)c1COc1ccc(-c2ccc3nc(C(=O)O)nnc3c2)cc1`, the values for the EC50 in series [1] and in series [4] were 360 nM and over 10000 nM, respectively. For the same compound, in series [3], the Activity came to 100%.
As for `CC(C)c1onc(-c2c(Cl)cccc2Cl)c1COc1ccc(-c2ccc3c(C(=O)O)ccnc3c2)cc1`, the EC50 was 340 nM in series [1] and 560 nM in [4]. Further, the values for the Activity in series [2] and in series [3] were 85% and 99%, respectively.
`CC(C)c1onc(-c2c(Cl)cccc2Cl)c1COc1ccc(-c2ccc3c(C(=O)O)nccc3c2)cc1`: the concentration giving a half-maximal response (EC50) in [1] was 380 nM; in series [4] it was 190 nM. Moreover, the results for the Activity in [2] and in series [3] were 102% and 92%, respectively.
For the compound `CCc1cc(C(=O)O)nc2ccc(-c3ccc(OCc4c(-c5c(Cl)cccc5Cl)noc4C(C)C)cc3)cc12`, the values for the EC50 in series [1] and in series [4] were 75 nM and 32 nM, respectively. Also, the figures for the Activity in series [2] and in [3] were 109% and 106%, respectively.
In the case of `Cc1cc2cc(-c3ccc(OCc4c(-c5c(Cl)cccc5Cl)noc4C(C)C)cc3)ccc2nc1C(=O)O`, the EC50 in [1] worked out at 140 nM; in [4], 38 nM. The Activity in series [2] was 101%; in series [3], 107%.
Regarding `Cc1cc(C(=O)O)nc2ccc(-c3ccc(OCc4c(-c5c(Cl)cccc5Cl)noc4C(C)C)cc3)cc12`, the values for the half-maximal effective concentration (EC50) in series [1] and in series [4] were 81 nM and 24 nM, respectively. Moreover, the Activity is 107% in series [2] and 108% in series [3].
Turning to `CCOc1cc(C(=O)O)nc2ccc(-c3ccc(OCc4c(-c5c(Cl)cccc5Cl)noc4C(C)C)cc3)cc12`, the 50% effective concentration (EC50) amounted to 52 nM in series [1] and 14 nM in [4]. Also, the Activity came to 84% in series [2] and 99% in series [3].
For `CC(C)c1onc(-c2c(Cl)cccc2Cl)c1COc1ccc(-c2cc3ccc(C(=O)O)nc3cc2F)cc1` the same measures were 240 nM, 110 nM, 107% and 115%.
In the case of `CC(C)c1onc(-c2c(Cl)cccc2Cl)c1COc1ccc(/C=C/c2cccc(C(=O)O)c2)c(Cl)c1`, the result in [5] was Active.
For `Cc1nc(C(=O)O)nc2ccc(-c3ccc(OCc4c(-c5c(Cl)cccc5Cl)noc4C(C)C)cc3)cc12`, the half-maximal effective concentration (EC50) in series [1] came out at 140 nM; in [4], 1000 nM. The Activity in series [2] was found to be 127%; in series [3], 102%.
For the compound `CCCOc1cc(C(=O)O)nc2ccc(-c3ccc(OCc4c(-c5c(Cl)cccc5Cl)noc4C(C)C)cc3)cc12`, the EC50 in series [1] stood at 59 nM; in series [4], 22 nM. Besides, the Activity worked out at 93% in series [2] and 113% in [3].
For `COc1cc(C(=O)O)nc2ccc(-c3ccc(OCc4c(-c5c(Cl)cccc5Cl)noc4C(C)C)cc3)cc12` the same measures were 58 nM, 17 nM, 107% and 113%.
Regarding `CC(C)c1onc(-c2c(Cl)cccc2Cl)c1COc1ccc(-c2ccc3cc(C(=O)O)ncc3c2)cc1`, the bioavailability in [6] was 6.3%; in [8], 2.5%; in [12], 15%; in series [15], 30%. For the same compound, the clearance in series [7] stood at 11 mL/min/kg; in [17] it was 18 mL/min/kg; in series [20], 29 mL/min/kg; in series [22] it was 8.2 mL/min/kg. Further, the half-life in series [9] was 10.3 h; in [11] it was 4.17 h; in series [14], 1.47 h; in series [16] it was 3.83 h. For the same compound, the EC50 came to 120 nM in series [1] and 77 nM in [4]. The Activity is 86% in [2] and 83% in series [3]. Moreover, the Vd was 1.8 L/kg in series [10], 5.1 L/kg in [13], 3.1 L/kg in series [18] and 2 L/kg in [21]. Also, the outcome in [5] was Active. Besides, the AUC in series [19] was found to be 40 ng·kg·h/mg/mL; in series [23], 320 ng·kg·h/mg/mL; in series [24], 300 ng·kg·h/mg/mL; in [25], 36 ng·kg·h/mg/mL.
Take `CC(C)COc1cc(C(=O)O)nc2ccc(-c3ccc(OCc4c(-c5c(Cl)cccc5Cl)noc4C(C)C)cc3)cc12`: the concentration for a half-maximal effect (EC50) was 78 nM in series [1] and 81 nM in series [4]. Also, the figures for the Activity in [2] and in series [3] were 93% and 105%, respectively.
`CC(C)c1onc(-c2c(Cl)cccc2Cl)c1COc1ccc(-c2ccc3c(C(=O)O)cccc3c2)cc1`: the Ratio EC50 in series [26], in series [27], in series [28], in [29], in [31] and in series [32] was 100 in each case. For the same compound, the Ratio EC50 in series [33], in series [34] and in series [35] was 100 throughout. Besides, the Activity in [2] turned out to be 104%; in series [3] it was 134%. The solubility in [30] was 1 ng/mL (≈ 1.88 nM). Further, the result in series [5] was Active. Moreover, the AUC stood at 1130 ng·kg·h/mg/mL in series [19] and 23 ng·kg·h/mg/mL in series [24].
Take `Cc1cc(OCc2c(-c3c(Cl)cccc3Cl)noc2C(C)C)ccc1-c1ccc2nc(C(=O)O)ccc2c1`: the concentration giving a half-maximal response (EC50) in series [1] stood at 250 nM; in series [4], 52 nM. Also, the figures for the Activity in [2] and in [3] were 91% and 87%, respectively.
Consider `Cc1cc(-c2ccc3nc(C(=O)O)ccc3c2)ccc1OCc1c(-c2c(Cl)cccc2Cl)noc1C(C)C`, for which the figures for the concentration giving a half-maximal response (EC50) in [1] and in series [4] were 110 nM and 44 nM, respectively. Also, the Activity was 94% in series [2] and 100% in series [3].
